What was measured:
[1] = Binding affinity to influenza A/Beijing/262/95 H1N1 neuraminidase expressed in baculovirus expression system using sialyl-lactose as substrate
[2] = Inhibition of Influenza A virus (A/Guangdong/03/2009(H1N1)) neuraminidase using 4-MUNANA as substrate preincubated for 1 hr followed by substrate addition and measured after 1 hr by fluorescence assay
[3] = Inhibition of Influenza A virus (A/Guangdong/05/2009(H1N1)) neuraminidase using 4-MUNANA as substrate preincubated for 1 hr followed by substrate addition and measured after 1 hr by fluorescence assay
[4] = Inhibition of Influenza A virus (A/GuangdongSB/01/2009(H1N1)) neuraminidase using 4-MUNANA as substrate preincubated for 1 hr followed by substrate addition and measured after 1 hr by fluorescence assay

| Structure (SMILES) | Ki [1] | IC50 [2] | IC50 [3] | IC50 [4] |
| --- | --- | --- | --- | --- |
| Nc1c(S(=O)(=O)O)cc(Nc2ccc(Nc3nc(Cl)nc(Nc4ccccc4S(=O)(=O)O)n3)c(S(=O)(=O)O)c2)c2c1C(=O)c1ccccc1C2=O | 2.9 µM |  |  |  |
| C/C=C/Oc1cc(C=O)ccc1O |  | 28 µM | 25 µM | 27 µM |
| O=S(=O)(O)c1ccccc1Nc1nc(Cl)nc(Nc2ccccc2S(=O)(=O)O)n1 | 0.28 µM |  |  |  |
| O=S(=O)(O)c1cccc(Nc2nc(Cl)nc(Nc3cccc(S(=O)(=O)O)c3)n2)c1 | 0.13 µM |  |  |  |

Source: BindingDB's records for PubMed 35367706 (University of Newcastle, 2022)
